Columns and labels:
[1] = test system: histone H4 acetylation in peripheral blood mononuclear cells (PBMC) and tumor tissue; set-up: method as in Plumb et al., 2003; details: ref Plumb et al., 2003, cited from earlier work
[2] = test system: five major cytochrome P450 enzymes; details: cited from earlier work
[3] = set-up: method as in Investigator's Brochure, 2004; details: dogs, ref Investigator's Brochure, 2004, cited from earlier work
CYP2C9 = test system: CYP2C9; set-up: method as in protocol pharmaceutical information; details: ref protocol pharmaceutical information; cited from earlier work
CYP2C8 = test system: CYP2C8; set-up: method as in protocol pharmaceutical information; details: ref protocol pharmaceutical information; cited from earlier work
HepG2 cells [4] = test: MTS growth inhibition assay; assay type: cell-based, human; details: Homo sapiens, HepG2, 72 h
Protocol: (§1) To the other plate, equal molar concentrations of belinostat-G were added similarly. After 72 h, cells were stained with Gentian Violet paint (0.5% w/v; B.P.) and assessed for viability. […] After incubating 24 h, 100-µL drug solution or blank medium was added into each well of 96-well plates. 72 h later, 20 µL of MTS/PES was added into each well for incubation for 3 h. OD values are measured on wavelength 490 nm. Cell growth inhibition was calculated based on the […] with subtraction of background reading for only medium containing wells. The growth inhibition was defined as the percentage of the average […] from drug-treated wells over that from control wells without treatment. The experiment was done in triplicates. IC50 values were calculated using GraphPad PRISM software (GraphPad Software, Inc., La Jolla, CA, USA).

[5] = set-up: method as in Investigator's Brochure, 2004; details: arginine formulation, human blood ex vivo; ref Investigator's Brochure, 2004; cited from earlier work
UGT1A7 = target: T1, UGT1A7 (Homo sapiens, UniProt Q9HAW7); test: UGT supersome screening; assay type: in vitro ADME; details: UGT1A7 supersomes, 10 µM belinostat, 37°C
T1 construct: purchased BD Gentest
T1 sequence (Q9HAW7 26-530): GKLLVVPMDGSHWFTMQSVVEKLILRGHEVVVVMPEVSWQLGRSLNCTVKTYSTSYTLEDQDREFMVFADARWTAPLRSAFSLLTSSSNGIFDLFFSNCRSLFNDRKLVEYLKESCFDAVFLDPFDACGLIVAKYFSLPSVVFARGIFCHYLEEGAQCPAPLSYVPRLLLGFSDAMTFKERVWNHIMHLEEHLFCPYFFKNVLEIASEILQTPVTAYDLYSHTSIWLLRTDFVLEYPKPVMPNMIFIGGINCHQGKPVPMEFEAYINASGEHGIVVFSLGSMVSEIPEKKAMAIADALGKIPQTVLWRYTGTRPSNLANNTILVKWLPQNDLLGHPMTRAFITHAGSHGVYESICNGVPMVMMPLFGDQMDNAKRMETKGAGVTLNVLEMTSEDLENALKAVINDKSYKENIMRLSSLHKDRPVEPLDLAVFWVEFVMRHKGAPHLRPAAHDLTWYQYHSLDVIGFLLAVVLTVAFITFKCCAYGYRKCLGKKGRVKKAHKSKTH
Protocol: (§2) Before the addition of substrate, the incubation mixture was prewarmed and equilibrated for 5 min at 37°C. […] The incubation mixture was vortexed and centrifuged (10,060 g) at 4°C for 10 min, and the supernatants were analyzed. Insect microsomes without UGT cDNA served as negative control. […] Incubations were performed as described above. Three independent experiments were performed for kinetic analysis.

UGT1A10 = target: T2, UGT1A10 (Homo sapiens, UniProt Q9HAW8); test: UGT supersome screening; assay type: in vitro ADME; details: UGT1A10 supersomes, 10 µM belinostat, 37°C
T2 construct: purchased BD Gentest
T2 sequence (Q9HAW8 26-530): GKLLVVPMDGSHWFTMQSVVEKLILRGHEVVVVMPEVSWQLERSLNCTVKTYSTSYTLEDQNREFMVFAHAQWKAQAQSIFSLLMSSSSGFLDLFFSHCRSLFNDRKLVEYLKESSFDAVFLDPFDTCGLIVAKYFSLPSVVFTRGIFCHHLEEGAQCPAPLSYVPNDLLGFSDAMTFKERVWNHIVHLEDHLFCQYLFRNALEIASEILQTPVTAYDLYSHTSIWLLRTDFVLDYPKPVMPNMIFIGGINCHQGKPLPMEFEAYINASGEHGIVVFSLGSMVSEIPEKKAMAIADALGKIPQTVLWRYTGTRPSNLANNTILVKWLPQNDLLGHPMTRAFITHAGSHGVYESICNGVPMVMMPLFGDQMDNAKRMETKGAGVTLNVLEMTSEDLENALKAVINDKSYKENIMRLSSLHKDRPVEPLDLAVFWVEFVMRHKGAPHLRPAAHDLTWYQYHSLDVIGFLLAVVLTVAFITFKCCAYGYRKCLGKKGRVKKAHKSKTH
Protocol: as §2

UGT2B17 = target: T3, UGT2B17 (Homo sapiens, UniProt O75795); test: UGT supersome screening; assay type: in vitro ADME; details: UGT2B17 supersomes, 10 µM belinostat, 37°C
T3 construct: purchased BD Gentest
T3 sequence (O75795 24-530): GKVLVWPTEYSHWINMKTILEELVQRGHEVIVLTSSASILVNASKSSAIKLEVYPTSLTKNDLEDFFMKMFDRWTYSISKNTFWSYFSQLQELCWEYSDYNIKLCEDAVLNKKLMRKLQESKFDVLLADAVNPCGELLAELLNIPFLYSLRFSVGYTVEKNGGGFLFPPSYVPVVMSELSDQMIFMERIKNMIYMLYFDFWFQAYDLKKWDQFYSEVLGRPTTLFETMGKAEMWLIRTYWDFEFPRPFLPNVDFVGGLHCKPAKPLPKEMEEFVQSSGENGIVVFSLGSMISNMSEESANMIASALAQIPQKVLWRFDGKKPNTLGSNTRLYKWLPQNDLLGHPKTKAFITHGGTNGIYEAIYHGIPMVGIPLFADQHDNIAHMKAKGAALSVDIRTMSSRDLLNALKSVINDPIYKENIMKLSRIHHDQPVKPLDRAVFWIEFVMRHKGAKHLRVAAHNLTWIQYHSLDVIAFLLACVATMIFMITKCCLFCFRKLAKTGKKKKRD
Protocol: as §2

UGT1A6 = target: T4, UGT1A6 (Homo sapiens, UniProt P19224); test: UGT supersome screening; assay type: in vitro ADME; details: UGT1A6 supersomes, 10 µM belinostat, 37°C
T4 construct: purchased BD Gentest
T4 sequence (P19224 27-532): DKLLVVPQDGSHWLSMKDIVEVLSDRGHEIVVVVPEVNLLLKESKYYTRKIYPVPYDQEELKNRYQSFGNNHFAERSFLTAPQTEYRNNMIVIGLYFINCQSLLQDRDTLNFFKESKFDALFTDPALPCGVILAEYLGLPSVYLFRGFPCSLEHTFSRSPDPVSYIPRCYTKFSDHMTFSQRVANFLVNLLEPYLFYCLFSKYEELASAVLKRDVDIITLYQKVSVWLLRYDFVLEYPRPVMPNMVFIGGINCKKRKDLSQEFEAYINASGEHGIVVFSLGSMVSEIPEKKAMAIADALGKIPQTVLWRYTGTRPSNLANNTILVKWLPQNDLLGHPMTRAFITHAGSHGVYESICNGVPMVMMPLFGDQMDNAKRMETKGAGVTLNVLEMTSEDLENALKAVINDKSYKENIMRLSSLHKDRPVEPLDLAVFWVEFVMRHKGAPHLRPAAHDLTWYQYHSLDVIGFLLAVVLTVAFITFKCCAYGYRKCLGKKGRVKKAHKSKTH
Protocol: as §2

UGT2B15 = target: T5, UGT2B15 (Homo sapiens, UniProt P54855); test: UGT supersome screening; assay type: in vitro ADME; details: UGT2B15 supersomes, 10 µM belinostat, 37°C
T5 construct: purchased BD Gentest
T5 sequence (P54855 24-530): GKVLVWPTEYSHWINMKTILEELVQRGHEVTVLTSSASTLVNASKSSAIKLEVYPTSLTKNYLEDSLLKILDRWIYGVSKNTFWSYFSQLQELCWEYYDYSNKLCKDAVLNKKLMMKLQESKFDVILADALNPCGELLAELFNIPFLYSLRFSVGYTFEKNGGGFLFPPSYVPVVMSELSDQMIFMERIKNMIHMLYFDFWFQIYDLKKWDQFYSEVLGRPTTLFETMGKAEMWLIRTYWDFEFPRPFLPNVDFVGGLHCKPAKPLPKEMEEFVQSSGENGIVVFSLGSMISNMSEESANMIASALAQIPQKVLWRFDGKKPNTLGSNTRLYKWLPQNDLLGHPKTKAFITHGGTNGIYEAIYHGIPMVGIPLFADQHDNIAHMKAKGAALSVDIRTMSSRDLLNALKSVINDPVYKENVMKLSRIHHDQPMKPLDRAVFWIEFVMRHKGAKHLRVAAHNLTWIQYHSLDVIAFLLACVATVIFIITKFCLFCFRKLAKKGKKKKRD
Protocol: as §2

UGT1A4 = target: T6, UGT1A4 (Homo sapiens, UniProt P22310); test: UGT supersome screening; assay type: in vitro ADME; details: UGT1A4 supersomes, 10 µM belinostat, 37°C
T6 construct: purchased BD Gentest
T6 sequence (P22310 29-534): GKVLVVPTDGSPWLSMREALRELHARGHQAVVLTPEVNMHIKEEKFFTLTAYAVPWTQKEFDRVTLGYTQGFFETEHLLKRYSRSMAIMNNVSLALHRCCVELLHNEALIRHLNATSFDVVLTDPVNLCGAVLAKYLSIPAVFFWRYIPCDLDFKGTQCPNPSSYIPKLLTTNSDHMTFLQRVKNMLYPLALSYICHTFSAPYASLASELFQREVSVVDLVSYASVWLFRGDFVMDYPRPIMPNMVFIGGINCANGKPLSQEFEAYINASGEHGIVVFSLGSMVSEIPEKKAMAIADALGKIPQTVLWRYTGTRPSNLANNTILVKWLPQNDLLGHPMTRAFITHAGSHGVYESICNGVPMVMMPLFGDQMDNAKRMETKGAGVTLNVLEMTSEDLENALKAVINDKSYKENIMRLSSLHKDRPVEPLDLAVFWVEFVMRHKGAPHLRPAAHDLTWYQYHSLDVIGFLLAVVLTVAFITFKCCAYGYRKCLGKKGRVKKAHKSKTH
Protocol: as §2

UGT1A9 = target: T7, UGT1A9 (Homo sapiens, UniProt O60656); test: UGT supersome screening; assay type: in vitro ADME; details: UGT1A9 supersomes, 10 µM belinostat, 37°C
T7 construct: purchased BD Gentest
T7 sequence (O60656 26-530): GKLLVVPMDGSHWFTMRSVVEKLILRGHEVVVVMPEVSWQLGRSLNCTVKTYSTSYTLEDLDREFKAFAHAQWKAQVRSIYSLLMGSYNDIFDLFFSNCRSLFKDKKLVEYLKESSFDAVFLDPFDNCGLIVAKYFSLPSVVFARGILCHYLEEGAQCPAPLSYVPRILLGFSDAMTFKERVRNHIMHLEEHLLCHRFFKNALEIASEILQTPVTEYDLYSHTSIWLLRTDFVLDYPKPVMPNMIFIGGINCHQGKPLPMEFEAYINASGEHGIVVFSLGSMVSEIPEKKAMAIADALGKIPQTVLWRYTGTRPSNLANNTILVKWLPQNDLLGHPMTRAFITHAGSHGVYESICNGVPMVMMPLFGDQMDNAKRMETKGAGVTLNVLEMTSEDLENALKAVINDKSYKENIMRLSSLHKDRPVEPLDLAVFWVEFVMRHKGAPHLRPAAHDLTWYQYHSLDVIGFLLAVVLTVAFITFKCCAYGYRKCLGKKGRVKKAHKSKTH
Protocol: as §2

CYP3A4 = test system: CYP3A4; set-up: method as in protocol pharmaceutical information; details: ref protocol pharmaceutical information; cited from earlier work
HepG2 cells [6] = test: Gentian Violet viability staining, 24-well plates; assay type: cell-based, human; details: 0–10 µM, 72 h
Protocol: as §1

[7] = test system: murine P388 leukemia cells; set-up: method as in Investigator's Brochure, 2004; details: P388 IP model, ref Investigator's Brochure, 2004, cited from earlier work
[8] = test system: cisplatin-resistant A2780/cp70; set-up: method as in Plumb et al., 2003; Investigator's Brochure, 2004; details: A2780/cp70 xenografts, 10 mg/kg/day IP once daily for 7 days; ref Plumb et al., 2003; Investigator's Brochure, 2004; cited from earlier work
UGT1A1 = target: T8, UGT1A1 (Homo sapiens, UniProt P22309); test: UGT supersome screening and kinetic analysis; assay type: in vitro ADME; details: 37°C
T8 sequence (P22309 26-533): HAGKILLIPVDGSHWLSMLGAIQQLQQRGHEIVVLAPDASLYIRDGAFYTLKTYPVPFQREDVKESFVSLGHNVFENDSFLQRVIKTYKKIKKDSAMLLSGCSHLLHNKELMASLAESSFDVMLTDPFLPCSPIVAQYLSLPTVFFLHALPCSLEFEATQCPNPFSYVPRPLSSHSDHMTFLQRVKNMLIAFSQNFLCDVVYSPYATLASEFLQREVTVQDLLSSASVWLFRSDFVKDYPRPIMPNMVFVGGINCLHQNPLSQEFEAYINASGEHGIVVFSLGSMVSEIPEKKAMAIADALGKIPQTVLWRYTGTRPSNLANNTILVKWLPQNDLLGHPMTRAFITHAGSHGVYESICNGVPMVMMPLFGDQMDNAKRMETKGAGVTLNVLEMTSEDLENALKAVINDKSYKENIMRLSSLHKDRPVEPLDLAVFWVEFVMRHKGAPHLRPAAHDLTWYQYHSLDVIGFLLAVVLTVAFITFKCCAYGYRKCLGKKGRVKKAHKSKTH
Protocol: Plots of substrate concentration, S (X axis) versus v (Y axis) were then constructed. Km and Vmax were calculated using the Michaelis-Menten equation (GraphPad software, Inc., San Diego, CA, USA).

[9] = set-up: method as in Investigator's Brochure, 2004; details: rats and dogs; ref Investigator's Brochure, 2004; cited from earlier work

O=C(/C=C/c1cccc(S(=O)(=O)Nc2ccccc2)c1)NO [Belinostat, N-hydroxy-3-(phenylsulphamoylphenyl) acrylamide]
histone H4 acetylation in PBMC ([1]; 1 and 2 hours after a single IP injection of 40 mg/kg): Hyperacetylated histone H4 was detected
time at which acetylation returned to baseline levels ([1]; PBMC, single IP injection of 40 mg/kg): ≤ 3 h
dose with marked acetylation in both PBMCs and tumor tissue ([1]; mice): ≥ 10 mg/kg
inhibition of the five major cytochrome P450 enzymes [2]: did not inhibit
systemic and local irritation adverse events (lymphopenia, lymphoid atrophy, injection site reactions) ([3]; 50 mg/kg/day, arginine formulation): mild and fully reversible
no-observable-effect-level (NOEL) ([3]; one study): 10 mg/kg/day
CYP2C9 inhibition (CYP2C9): weak to moderate inhibitor
CYP2C8 inhibition (CYP2C8): weak to moderate inhibitor
IC50 (HepG2 cells [4]): 6.4 µM
hemolysis [5]: No hemolysis
metabolism by UGT isoform (UGT1A7): no metabolism was observed
metabolism by UGT isoform (UGT1A10): no metabolism was observed
metabolism by UGT isoform (UGT2B17): no metabolism was observed
metabolism by UGT isoform (UGT1A6): no metabolism was observed
metabolism by UGT isoform (UGT2B15): no metabolism was observed
metabolism by UGT isoform (UGT1A4): no metabolism was observed
metabolism by UGT isoform (UGT1A9): no metabolism was observed
contribution of CYP3A4 to metabolism (CYP3A4): contributes to PXD101 metabolism
cytotoxicity / cell viability (staining) (HepG2 cells [6]): significant dose-dependent cytotoxicity
survival, 40 mg/kg/day × 5 days (from day 3) versus same total dose (200 mg/kg) as bolus on day 3 ([7]; P<0.0001): superior
survival, 20 mg/kg/day for 10 days versus 40 mg/kg every two days (cumulative 200 mg/kg) ([7]; P=0.009): better survival
survival rates, every second day three times versus every day for 5 days (cumulative 270 mg/kg) ([7]; p=0.49): no significant differences
survival, daily dose (20, 40, or 80 mg/kg for 5 days) fractionated into two doses per day versus one daily dose [7]: did not improve survival
tumor growth [8]: Delay of tumor growth was observed
belinostat converted to belinostat-G (UGT1A1; 2 h incubation with UGT1A1 supersomes): 73.6%
belinostat converted to belinostat-G (UGT1A1; 4 h incubation with UGT1A1 supersomes): 89.4%
glucuronidation of belinostat by UGT isoform (UGT1A1; UGT1A1 supersomes, 10 µM belinostat): glucuronidated belinostat significantly
elimination routes of PXD101 and its metabolites [9]: urinary and fecal routes

Reference: publication PMC3559838 (PLoS ONE, 2013)
